Experimental data: patent US20230084927A1, “GLUCOSE UPTAKE INHIBITORS AND USES THEREOF” (METABOMED LTD., priority 2019, published 2023)
Like-named read-outs stand apart in the source and are kept apart here.

Columns and labels:
[1] = test system: SDH-KO-HRAS cells (SDHB-deficient); test: Cellular / differential toxicity assay (CellTiter-Glo, 3 days); type: cell-based, murine; conditions: toxicity, SDH-KO cells, 3 days, CellTiter-Glo, read-out: EC50 (uM) SDH-KO-HTAS-C17
Method in brief: (§1)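 Isogenic SDHB-deficient (HRAS-transformed SDH-KO) and SDH-WT cells grown in DMEM-F12 with 1 mM glutamine and 3% FBS, plated with compound (10-point dilution from 10 uM to 0.0065 uM or lower) for 3 days at 37 °C, 5% CO2. Viability by CellTiter-Glo luminescence; EC50 calculated.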

[2] = test system: SDH-WT cells; test: as above; type: cell-based, murine; conditions: toxicity, SDH-WT cells, 3 days, CellTiter-Glo, read-out: EC50 (uM) SDH-WT
Method in brief: as §1

| SMILES | EC50 ([1]; Mus musculus, 72 h) [µM] | EC50 ([2]; Mus musculus, 72 h) [µM] | EC50 [1] [µM] | EC50 [2] [µM] |
| --- | --- | --- | --- | --- |
| Cc1nc(NC(C)c2ccccc2)c2sc3nc4c(cc3c2n1)COC(C)(C)C4 (stereo not shown) [Compound 272] | > 10 | > 10 | – | – |
| COc1ccc(CCNc2nc(C)nc3c2sc2nc4c(cc23)COC(C)(C)C4)cc1OC [Compound 273] | 3 to 10 | > 10 | – | – |
| CC(Nc1ncnc2c1sc1nc3c(cc12)COC(C)(C)C3)c1ccccc1 (stereo not shown) [Compound 274] | > 10 | > 10 | – | – |
| CC1(C)Cc2nc3sc4c(N(CCO)CCO)ncnc4c3cc2CO1 [Compound 275] | > 10 | > 10 | – | – |
| CC(Cc1ccccc1)Nc1ncnc2c1sc1nc3c(cc12)COC(C)(C)C3 (stereo not shown) [Compound 276] | > 10 | 3 to 10 | – | – |
| CC1(C)Cc2nc3sc4c(NCc5cccnc5)ncnc4c3cc2CO1 [Compound 277] | > 10 | > 10 | – | – |
| CN(CCO)c1ncnc2c1sc1nc3c(cc12)COC(C)(C)C3 [Compound 278] | > 10 | > 10 | – | – |
| CC1(C)Cc2nc3sc4c(N5CCC(Cc6ccccc6)CC5)ncnc4c3cc2CO1 [Compound 279] | > 10 | > 10 | – | – |
| CCN1CCN(c2ncnc3c2sc2nc4c(cc23)COC(C)(C)C4)CC1 [Compound 280] | > 10 | > 10 | – | – |
| COCCCNc1ncnc2c1sc1nc3c(cc12)COC(C)(C)C3 [Compound 281] | 3 to 10 | > 10 | – | – |
| CC1CCCCN1c1ncnc2c1sc1nc3c(cc12)COC(C)(C)C3 (stereo not shown) [Compound 282] | > 10 | > 10 | – | – |
| COCCNc1ncnc2c1sc1nc3c(cc12)COC(C)(C)C3 [Compound 283] | > 10 | > 10 | – | – |
| CC1(C)Cc2nc3sc4c(NCCOCCO)ncnc4c3cc2CO1 [Compound 284] | > 10 | > 10 | – | – |
| CC(O)CN(CC(C)O)c1ncnc2c1sc1nc3c(cc12)COC(C)(C)C3 (stereo not shown) [Compound 285] | > 10 | > 10 | – | – |
| CC1(C)Cc2nc3sc4c(N5CCN(C(c6ccccc6)c6ccccc6)CC5)ncnc4c3cc2CO1 [Compound 286] | > 10 | > 10 | – | – |
| CCN(CC)CCCNc1ncnc2c1sc1nc3c(cc12)COC(C)(C)C3 [Compound 287] | > 10 | > 10 | – | – |
| CC1(C)Cc2nc3sc4c(N5CCN(CCO)CC5)ncnc4c3cc2CO1 [Compound 288] | > 10 | > 10 | – | – |
| CCN(CCO)c1ncnc2c1sc1nc3c(cc12)COC(C)(C)C3 [Compound 289] | 3 to 10 | > 10 | – | – |

| SMILES | EC50 ([1]; Mus musculus, 72 h) [µM] | EC50 ([2]; Mus musculus, 72 h) [µM] | EC50 [1] [µM] | EC50 [2] [µM] |
| --- | --- | --- | --- | --- |
| CC1(C)Cc2nc3sc4c(NCCCN5CCOCC5)ncnc4c3cc2CO1 [Compound 290] | > 10 | > 10 | – | – |
| CCC(CO)Nc1ncnc2c1sc1nc3c(cc12)COC(C)(C)C3 (stereo not shown) [Compound 291] | > 10 | > 10 | – | – |
| CN(Cc1ccccc1)c1ncnc2c1sc1nc3c(cc12)COC(C)(C)C3 [Compound 292] | > 10 | > 10 | – | – |
| CC1(C)CCc2cc3c(nc2C1)sc1c(CCC2(c4ccccc4)CCCC2)cccc13 [Compound 293] | > 10 | > 10 | – | – |
| CCCCNc1ncnc2c1sc1nc3c(cc12)COC(C)(C)C3 [Compound 294] | – | – | > 10 | > 10 |
| CC1(C)Cc2nc3sc4c(NN)ncnc4c3cc2CO1 [Compound 295] | > 10 | > 10 | – | – |
| C=CCNc1ncnc2c1sc1nc3c(cc12)COC(C)(C)C3 [Compound 296] | – | – | 3 to 10 | > 10 |
| CCN(CC)c1ncnc2c1sc1nc3c(cc12)COC(C)(C)C3 [Compound 297] | 3 to 10 | > 10 | – | – |
| CC1(C)Cc2nc3sc4c(N5CCCC5)ncnc4c3cc2CO1 [Compound 298] | > 10 | > 10 | – | – |
| CCC(C)Nc1ncnc2c1sc1nc3c(cc12)COC(C)(C)C3 (stereo not shown) [Compound 299] | > 10 | > 10 | – | – |
| CCCN(CCC)c1ncnc2c1sc1nc3c(cc12)COC(C)(C)C3 [Compound 300] | 3 to 10 | 3 to 10 | – | – |
| COc1ccc(CCn2cnc3c(sc4nc5c(cc43)COC(C)(C)C5)c2=O)cc1F [Compound 301] | > 10 | > 10 | – | – |
| CCOC(=O)C1CCc2nc3sc4c(NCCc5ccc(OC)c(F)c5)ncnc4c3cc2C1 (stereo not shown) [Compound 302] | > 10 | > 10 | – | – |
| COc1ccc(CCNc2ncnc3c2sc2nc4c(cc23)COCC4)cc1F [Compound 303] | < 1 | > 10 | – | – |
| CN1C(=O)CCC1n1cnc2ccc(CCNc3ncnc4c3sc3nc5c(cc34)COC(C)(C)C5)cc21 (stereo not shown) [Compound 304] | < 1 | 3 to 10 | – | – |
| COCCOCCOCCOCc1c2c(nc3sc4c(NCCc5ccc6[nH]cnc6c5)ncnc4c13)CC(C)(C)OC2 [Compound 305] | < 1 | > 10 | – | – |
| CC1(C)Cc2nc3sc4c(NCCc5ccc6[nH]cnc6c5)ncnc4c3c(CO)c2CO1 [Compound 306] | > 10 | > 10 | – | – |
